In patent US12077503B2, “Substituted cyclic amides and their use as herbicides” (FMC CORPORATION, priority 2015, dated 2024) one finds melting point data, which are given here for 2 molecules.

A word on the melting point: it is the temperature, or range, at which the solid turns liquid. Molecule `CC(C)=CC1CNC(=O)C1C(=O)Nc1ccccc1F` (centres unmarked) [Compound 1011] gave a melting point of 136 to 140 °C.
The figure for `C=C(C)c1cccc([C@H]2CN(C)C(=O)[C@@H]2C(=O)Nc2ccc(F)c(F)c2F)c1` [Compound 1087] is 98 to 102 °C.
